# What was measured:
# [1] = cited from earlier work; for EPTC: effective therapeutic plasma concentration
# [2] = test system: lined-up hESC-CMs; assay: MEA field potential recording of lined-up hESC-CMs (cFPD, CT, their STVs, ISI, beat rate, arrest); assay type: cell-based, human; settings: for BR (beat rate) / ISI (inter-spike interval) / STVCT / STVcFPD / cFPD / Cond. Time (CT): change vs Ctrl.; for CT: at equivalent concentrations of Nav1.5 IC50; for Arrest: arrest cases/chips
# Protocol: Human embryonic stem cell-derived cardiomyocytes clusters (hES-CMCs) were shipped from Cellectis (hES-CMCTM002, hES cell line SA002, Gothenburg, Sweden)[42],[43], and maintained in Dulbecco’s modified Eagle’s medium (DMEM) supplemented 20% heat-inactivated fetal bovaine serum, 1 mM GlutaMax, 100 U/mL penicillin, 0.1 mg/mL streptomycin, 1% nonessential amino acids and 0.1 mM β-mercaptoethanol (Invitrogen, Carsbad, CA, USA). Dispersed cardiomyocytes were isolated from hES-CMCs by a modification of the methods of Norström et al.[44]–[48]. […] The supernatant was gently aspirated with pipette, and a 5-hold volume of DMEM was added as stop solution. Remaining clusters were treats ed with the above process with several times. The supernatants were collected and centrifuged with 200 × g for 2–3 min at 4 °C. The resulting supernatant including dispersed cells was seeded into agarose microchambers on an MEA chip (MED-P530A; AlphaMED scientific. Co. Ltd., Japan)[40].
# The MEA chip surface was prepared as follows. First, the chip surface was coated with collagen type I-C (Nitta Gelatin, Japan). After drying, the chip surface was coated with a 0.1% agarose gel. […] At >30 min before the start of experiment, the medium was changed to 2 mL pre-warmed fresh maintenance medium per chip.
# Extracellular potential recordings of the lined-up hESC-CMs were performed using the MEA system at a sampling rate of 10 kHz with a low path filter of 2 kHz and high path filter of 1 Hz, and signals were amplified by 100–50,000 using the amplifier. The MEA chip with lined-up hESC-CMs was set in the FP measurement device and placed in a humidified cell culture incubator at 37 °C, 5% CO2. The signals were analyzed by Igor Pro 6.0 (WaveMetrics, Inc., USA) and FlexPro 7.0 (Weisang GmbH, Germany).
# We adopted the same drug administration protocol as we examined previously[40] (Fig. 2B). Briefly, the MEA chips of lined-up cells for experiments were selected from the chips having 0.6–1.1 Hz beating frequency and ventricle-like waveforms of FP recordings (see Fig. 1B,D). The MEA chip was placed in the holder of the FP measurement device, and equilibrated for 5 min, and then the control FP waveforms were recorded for 10 min. Subsequently, the drug was applied to the medium at 1% dilution in serially increasing additions, and the FP waveforms were recorded for 10 min at each concentration. Finally, the drug-containing medium was replaced with fresh medium after washing three times. The last 50 beats extracted from 10 min recorded FP waveform data was used for beat rate, FPD (the time from first depolarization peak to broad repolarization peak) and CT (the time difference of the first peaks between separately placed electrodes in lined-upped cell-network) measurement at each concentration (Fig. 2C).
# It was normalized (cFPD) to the beating rate of cardiomyocytes using Bazett’s correction formula based on the comparison of the slope of a plot of inter-spike interval and FPD, or corrected FPD by Bazett’s or Fridericia’s formulae (Fig. 3). The short-term variability (STV) of cFPD and CT, which was defined as the mean distance of points perpendicular to the line of identity in the Poincaré plot, was calculated ( STV=∑|D(n+1)−Dn|/(n×2) , where Dn represents the FPD and CT of n-th beating). STVs were last 50 beat data from 5 min extraction of cFPD and CT. To assess the arrhythmogenicity risk of test drugs, the mean values of cFPD, STVcFPD, CT and STVCT of each drug were plotted.
# [3] = test system: Cav1.2; settings: read-out: IC50 Cav1.2; cited from earlier work
# [4] = Conc. 10^5 nM (100 μM), listed as lidocaine
# [5] = Conc. 10^5 nM (100 μM), listed as terfenadine
structure (smiles),measurement,setting,value
"CCN(CC)CC(=O)Nc1c(C)cccc1C [Lidocaine, lidocaine]",EPTC,[1],"5,970–25,603[69] nM"
same,cFPD change,"[2]; 10–100 μM, P < 0.05",−18%
same,BR (beat rate),[2]; Conc. 10 nM,3.6%
same,ISI (inter-spike interval),[2]; Conc. 10 nM,−3.4%
same,STVCT,[2]; Conc. 10 nM,46%
same,STVcFPD,[2]; Conc. 10 nM,54%
same,cFPD,[2]; Conc. 10 nM,9.5%
same,Cond. Time (CT),[2]; Conc. 10^2 nM (0.1 μM),−6.0%
same,STVCT,[2]; Conc. 10^2 nM (0.1 μM),43%
same,STVcFPD,[2]; Conc. 10^2 nM (0.1 μM),38%
same,cFPD,[2]; Conc. 10^2 nM (0.1 μM),10%
same,BR (beat rate),[2]; Conc. 10^2 nM,4.4%
same,ISI (inter-spike interval),[2]; Conc. 10^2 nM,−4.2%
same,Cond. Time (CT),[2]; Conc. 10^3 nM (1 μM),−7.4%
same,STVCT,[2]; Conc. 10^3 nM (1 μM),35%
same,STVcFPD,[2]; Conc. 10^3 nM (1 μM),54%
same,cFPD,[2]; Conc. 10^3 nM (1 μM),9.7%
same,BR (beat rate),[2]; Conc. 10^3 nM,2.8%
same,ISI (inter-spike interval),[2]; Conc. 10^3 nM,−2.6%
same,Cond. Time (CT),[2]; Conc. 10^4 nM (10 μM),4.7%
same,STVCT,[2]; Conc. 10^4 nM (10 μM),134%
same,STVcFPD,[2]; Conc. 10^4 nM (10 μM),345%
same,cFPD,[2]; Conc. 10^4 nM (10 μM),−18%
same,STVCT,"[2]; Conc. 10^4 nM (10 μM), listed as lidocaine",134%
same,BR (beat rate),[2]; Conc. 10^4 nM,−48%
same,ISI (inter-spike interval),[2]; Conc. 10^4 nM,128%
same,Cond. Time (CT),[2]; Conc. 10^5 nM (100 μM),22%
same,STVCT,[2]; Conc. 10^5 nM (100 μM),54%
same,STVcFPD,[2]; Conc. 10^5 nM (100 μM),143%
same,cFPD,[2]; Conc. 10^5 nM (100 μM),−18%
same,Cond. Time (CT),[2]; [4],22.1%
same,STVCT,[2]; [4],54%
same,BR (beat rate),[2]; Conc. 10^5 nM,−51%
same,ISI (inter-spike interval),[2]; Conc. 10^5 nM,160%
same,CT,[2],increased
"CC(C)(C)c1ccc(C(O)CCCN2CCC(C(O)(c3ccccc3)c3ccccc3)CC2)cc1 (stereo not drawn) [Terfenadine, terfenadine]",EPTC,[1],3.3 to 9.7 nM
same,Unbound,[1]; unbound therapeutic plasma concentration,0.1 to 0.29 nM
same,CT increase,"[2]; 3 μM, n = 4, P < 0.05",189%
same,BR (beat rate),[2]; Conc. 10 nM,4.6%
same,Cond. Time (CT),[2]; Conc. 10 nM,32%
same,ISI (inter-spike interval),[2]; Conc. 10 nM,−4.0%
same,STVCT,[2]; Conc. 10 nM,37%
same,STVcFPD,[2]; Conc. 10 nM,76%
same,cFPD,[2]; Conc. 10 nM,2.3%
same,Cond. Time (CT),[2]; Conc. 10^2 nM (0.1 μM),4.0%
same,STVCT,[2]; Conc. 10^2 nM (0.1 μM),16%
same,STVcFPD,[2]; Conc. 10^2 nM (0.1 μM),−3.4%
same,cFPD,[2]; Conc. 10^2 nM (0.1 μM),2.8%
same,BR (beat rate),[2]; Conc. 10^2 nM,2.0%
same,ISI (inter-spike interval),[2]; Conc. 10^2 nM,−2.0%
same,Cond. Time (CT),[2]; Conc. 10^3 nM (1 μM),101%
same,STVCT,[2]; Conc. 10^3 nM (1 μM),228%
same,STVcFPD,[2]; Conc. 10^3 nM (1 μM),37%
same,cFPD,[2]; Conc. 10^3 nM (1 μM),0.25%
same,STVCT,"[2]; Conc. 10^3 nM (1 μM), listed as terfenadine",228%
same,BR (beat rate),[2]; Conc. 10^3 nM,−3.0%
same,ISI (inter-spike interval),[2]; Conc. 10^3 nM,3.1%
same,Cond. Time (CT),[2]; Conc. 10^4 nM (10 μM),189%
same,STVCT,[2]; Conc. 10^4 nM (10 μM),511%
same,STVcFPD,[2]; Conc. 10^4 nM (10 μM),65%
same,cFPD,[2]; Conc. 10^4 nM (10 μM),−26%
same,cFPD,"[2]; Conc. 10^4 nM (10 μM), listed as terfenadine",−26%
same,Arrest,[2]; Conc. 10^4 nM,3/7
same,BR (beat rate),[2]; Conc. 10^4 nM,−38%
same,ISI (inter-spike interval),[2]; Conc. 10^4 nM,122%
same,Cond. Time (CT),[2]; Conc. 10^5 nM (100 μM),198%
same,STVCT,[2]; Conc. 10^5 nM (100 μM),143%
same,STVcFPD,[2]; Conc. 10^5 nM (100 μM),243%
same,cFPD,[2]; Conc. 10^5 nM (100 μM),−73%
same,STVcFPD,[2]; [5],243%
same,cFPD,[2]; [5],−78%
same,Arrest,[2]; Conc. 10^5 nM,2/4
same,BR (beat rate),[2]; Conc. 10^5 nM,−88%
same,ISI (inter-spike interval),[2]; Conc. 10^5 nM,744%
same,CT,[2],increased
same,FPD,[2]; concentrations more than 10 μM,FPD shortening

# Source: PMC6162288, “On-chip spatiotemporal electrophysiological analysis of human stem cell derived cardiomyocytes enables quantitative assessment of proarrhythmia in drug development” (Scientific Reports, 2018)
